Assay results reported in patent US20130040036A1, “Shelf Stable, Low Water Liquid Beverage Concentrates And Methods Of Making The Same” (priority 2011, published 2013).

Assay: Solubility of sucralose in non-aqueous liquids
Assay type: physicochemical
Conditions: 1,3-propanediol vs propylene glycol
Source text: Therefore, beverage concentrates containing sucralose may be advantageously prepared using a solvent comprising 1,3-propanediol to provide a beverage concentrate that is able to maintain sucralose in solution throughout its shelf life. In other instances, selection of NAL may also depend, at least in part, on the flavor provided by the NAL and the desired taste profile in the final beverage. In yet other instances, selection of NAL may also depend, at least in part, on the viscosity and/or the desired density of the resulting concentrate.

OC[C@H]1O[C@H](O[C@]2(CCl)O[C@H](CCl)[C@@H](O)[C@@H]2O)[C@H](O)[C@@H](O)[C@H]1Cl [sucralose]
solubility in non-aqueous liquid: more readily solubilized in 1,3-propanediol than in propylene glycol
